Measurements published in PubChem BioAssay AID1208 (EPA DSSTox, 2008).
Activity calls are given as the source filed them.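 Rule for the calls: active = at least one rat sex group has a carcinogenic potency value and tumor site recorded; inconclusive = only rat studies were judged inadequate by the national testing program; inactive = no potency or tumor site, with negative rat experiments.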

Test system: rat chronic carcinogenicity bioassay, TD50
Assay: DSSTox (CPDBAS) Carcinogenic Potency Database Summary Rat Bioassay Results
Conditions: for Potency: active compounds read low; for outcome: TD50_Rat_Note: no positive results
In short: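 The activity score maps log10(1/TD50_Rat_mmol) linearly onto 1–100; actives without a computed TD50, such as mixtures, receive 50. Source data are chronic rat carcinogenicity tests, using the most positive experiment for each sex.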

[1] = TargetSites_Rat_Female: no positive results
[2] = TD50_Rat_Note: TD50 is harmonic mean of more than one positive test

`CC(C)=NO` showed a Potency [1] of 12.1 mg/kg/day.
Work on `CCn1c2ccccc2c2cc(N)ccc21` yielded a Potency (TD50_Rat_Note: TD50 is harmonic mean of more than one positive test, TD50_Rat_mmol was not calculated for this mixture, but Activiity S, TargetSites_Rat_Female: ear Zymbals gland) of 26.4 mg/kg/day and a Potency (TD50_Rat_Note: TD50 is harmonic mean of more than one positive test, TargetSites_Rat_Female: ear Zymbals gland, liver, uterus) of 57.2 mg/kg/day.
`O=C(O)c1ccc(N=Nc2ccc(O)c(C(=O)O)c2)cc1` was tested, and the outcome [1] was “inactive; no positive results”.
With `C/C=C(/C)C(=O)O[C@H]1CCN2CC=C(COC(=O)[C@](O)([C@H](C)OC)C(C)(C)O)[C@H]12` the Potency (TD50_Rat_Note: TD50 is harmonic mean of more than one positive test, TargetSites_Rat_Female: hematopoietic system, liver, vascular system) was 0.389 mg/kg/day.
`O=P1(N(CCCl)CCCl)NCCCO1` (configuration not stated) was tested, and the Potency (TD50_Rat_Note: TD50 is harmonic mean of more than one positive test, greater than ten-fold variation among TD50 values for positive res, TargetSites_Rat_Female: all tumor bearing animals, TargetSites_Rat_BothSexes: hematopoietic system, nervous system, urinary bladder) was 2.21 mg/kg/day.
For `CC1(C)S[C@@H]2[C@H](NC(=O)[C@H](N)c3ccccc3)C(=O)N2[C@H]1C(=O)O`, the outcome [1] was “inactive; no positive results”.
With `CN(C)N` the outcome [1] was “inactive; no positive results”.
Work on `ON=C1CCCC1` yielded a Potency of 40.9 mg/kg/day.
`C=CC=O` was tested, and the outcome [1] was “inactive; no positive results”.
With `CCC(CC)[N+](=O)[O-]` the Potency was 2.37 mg/kg/day.
In the case of `NC(N)=O`, the outcome [1] is reported as “inactive; no positive results”.
`CC(=O)C(N=Nc1ccc(-c2ccc(N=NC(C(C)=O)C(=O)Nc3ccccc3)c(Cl)c2)cc1Cl)C(=O)Nc1ccccc1` (configuration not stated) was tested, and the outcome [1] was “inactive; no positive results”.
For `O=C(O)O`, the Potency (TD50_Rat_Note: TD50 is harmonic mean of more than one positive test, TargetSites_Rat_Female: urinary bladder) was 13000 mg/kg/day and the outcome was “inactive; no positive results”.
In the case of `CCCCNC(N)=O`, the outcome [1] is reported as “inactive; no positive results”.
For `CCCCCN(N=O)C(=O)OCC`, the Potency (TargetSites_Rat_Female: esophagus, oral cavity) was 1.01 mg/kg/day.
Work on `COc1ccc(OC)c(/C=C/c2ccc(N)cc2)c1` yielded a Potency of 0.721 mg/kg/day.
Work on `C=CCc1ccc(OC)c(OC)c1` yielded a Potency (TD50_Rat_Note: TD50 is harmonic mean of more than one positive test, TargetSites_Rat_Female: liver, stomach) of 19.7 mg/kg/day.
With `CC1=CC(=C(c2ccc(N)cc2)c2ccc(N)cc2)C=CC1=N` the outcome [1] was “inactive; no positive results”.
In the case of `FC(F)Cl`, the outcome [1] is reported as “inactive; no positive results”.
`NCCc1ccc(O)c(O)c1` was tested, and the outcome was “inactive; no positive results”.
In the case of `Brc1cc(-c2ccc(Br)c(Br)c2Br)cc(Br)c1Br`, the outcome [1] is reported as “inactive”.
`CCCN(N=O)C(=N)N[N+](=O)[O-]` showed a Potency [2] of 1.31 mg/kg/day.
`C=Cc1ccccc1` gave a Potency (TargetSites_Rat_Female: mammary gland) of 23.3 mg/kg/day.
For `CN(C)P(=O)(N(C)C)N(C)C`, the Potency (TD50_Rat_Note: TD50 is harmonic mean of more than one positive test, TargetSites_Rat_BothSexes: nasal cavity) was 0.0344 mg/kg/day.
In the case of `Clc1ccc2c(c1)C(c1ccccc1)=NCc1nncn1-2`, the outcome [1] is reported as “inactive; no positive results”.
`ClC/C=C/CCl` showed a Potency (TD50_Rat_Note: TD50 is harmonic mean of more than one positive test, TargetSites_Rat_Female: nasal cavity) of 0.297 mg/kg/day.
In the case of `O=C1CCCCC1`, the outcome [1] is reported as “inactive; no positive results”.
For `O=S(=O)([O-])[O-].[Cd+2]`, the Potency (TD50_Rat_Note: TD50 is harmonic mean of more than one positive test, TargetSites_Rat_Female: lung) was 0.0217 mg/kg/day.
`Cc1cccc(N=Nc2ccc(N(C)C)cc2)c1` showed a Potency [2] of 3.28 mg/kg/day.
For `O=S(=O)(O)c1ccc(N=Nc2c(O)ccc3cc(S(=O)(=O)O)ccc23)cc1`, the outcome [1] was “inactive; no positive results”.
`CN(C)/N=N/c1nc[nH]c1C(N)=O` gave a Potency (TargetSites_Rat_Female: hematopoietic system, mammary gland, uterus) of 0.71 mg/kg/day.
In the case of `Nc1c(Cl)cc(Cl)cc1Cl`, the outcome is reported as “inactive; no positive results”.
In the case of `NC(=O)N/N=C/c1ccco1`, the outcome [1] is reported as “inactive”.
With `CC[C@H]1OC(=O)[C@H](C)[C@@H](O[C@H]2C[C@@](C)(OC)[C@@H](O)[C@H](C)O2)[C@H](C)[C@@H](O[C@@H]2O[C@H](C)C[C@H](N(C)C)[C@H]2O)[C@](C)(O)C[C@@H](C)C(=O)[C@H](C)[C@@H](O)[C@]1(C)O` the outcome [1] was “inactive; no positive results”.
`CC(C)NCC(O)COc1cccc2ccccc12` (configuration not stated) was tested, and the outcome [1] was “inactive; no positive results”.
Compound `CCCCCCCCCCCCN(C)N=O` has a Potency (TD50_Rat_Note: TD50 is harmonic mean of more than one positive test, harmonic mean of TD50 includes a value for upper 99% confidence li, TargetSites_Rat_Female: urinary bladder) of 0.537 mg/kg/day.
For `Cc1ccc(OP(=O)(Oc2ccc(C)cc2)Oc2ccc(C)cc2)cc1`, the outcome [1] was “inactive; no positive results”.
For `COC(=O)C1=CCCN(N=O)C1`, the outcome was “inactive; no positive results”.
Work on `C=CCOC(=O)CC(C)C` yielded a Potency [1] of 123 mg/kg/day.
With `CC(=O)Nc1cccc2c1-c1ccccc1C2` the outcome [1] was “inactive”.
For `NC(=O)CI`, the outcome was “inactive; no positive results”.
With `O=C(OOC(=O)c1ccccc1)c1ccccc1` the outcome (TargetSites_Rat_BothSexes: no positive results) was “inactive”.
With `Cc1ccc([N+](=O)[O-])cc1N` the outcome [1] was “inactive; no positive results”.
`CN(C)c1ccccc1` showed a Potency [1] of 125 mg/kg/day.
In the case of `CCC1(c2ccccc2)C(=O)NCNC1=O`, the outcome [1] is reported as “inactive; no positive results”.
